We go through 1 compound from patent US20230140298A1, “TOPICAL COMPOSITION COMPRISING RETINOL AND PDRN AND USE OF SAME” (DR. J SKINCLINIC, INC., priority 2021, published 2023).

Holding throughout (assay type): cell-based, human
For assay [1], the system named is MCP-1. Nature of the assay: Retinol-induced MCP-1 release in HaCaT cells (ELISA). The following applies: 10 μM all-trans retinol, 48 hours. The method, then:
(§1) Referring to FIG. 1, immortalized human keratinocytes HaCaT cells were cultured in 96-well plates and treated with 10 μM of all-trans retinol (Sigma-Aldrich, St. Louis, Mo.) and c-PDRN® obtained from (PharmaResearch, Seongnam-si, Gyeonggi-do, Korea) at the indicated concentrations. […] The levels of secreted cytokine were normalized against a standard dose-response curve. c-PDRN is a hydrolyzed DNA fragment mixture extracted from the testes of adult salmon (Oncorhynchus keta, Salmonidae) The inhibitory effects of c-PDRN were evaluated on retinol-induced secretion of MCP-1 or IL-8 in cultured human keratinocytes, HaCaT cells by enzyme-linked immunosorbent assay (ELISA) to study IL-8, MCP-1 signaling pathway. The cultured HaCaT cells were treated with 10 μM all-trans retinol prior to c-PDRN treatment at the indicated concentrations. After incubation for 48 hours, the levels of secreted IL-8 or MCP-1 were measured and normalized against a standard IL-8 or MCP-1 dose-response curve. Data were shown as the means of three individual experiments with five wells per group. All-trans retinol induced increases in IL-8 and MCP-1 secretion by 8-fold and 1.4-fold, respectively. Efficacy range was c-PDRN 10 ppm ˜100 ppm or 0.001%-0.01%.
For orientation: ELISA stands for enzyme-linked immunosorbent assay.

Assay [2] concerns IL-8. Nature of the assay: Retinol-induced IL-8 release in HaCaT cells (ELISA). The following applies: 10 μM all-trans retinol, 48 hours. How it is done:
as §1

Assay [3] concerns p38. Nature of the assay: Expression and phosphorylation of p38 in HaCaT cells (Western blot). Conditions: 10 μM all-trans retinol, 48 hours, FIG. 3. The method, then:
Referring to FIG. 1, altered signaling pathways in the retinol-treated HaCaT cells were investigated. The HaCaT cells were harvested 48 hours after treatment of retinol and c-PDRN at the indicated concentrations, and expression and phosphorylation levels of inflammation-related signaling mediator, p38 were determined using Western blot. Antibodies against p38 or phosphorylated p38 (p-p38) were purchased from Cell Signaling Technology (Danvers, Mass.). The expression and phosphorylation levels of inflammation-related signaling mediator, p38 were evaluated after treatment with 10 μM all-trans retinol and c-PDRN at the indicated concentrations using Western blot to study p38 signaling pathway.
Background: In western blotting, separated proteins are transferred to a membrane and probed.

In the case of `CC1=C(/C=C/C(C)=C/C=C/C(C)=C/CO)C(C)(C)CCC1` [All-trans retinol, all-trans retinol], in assay [1], the “increase in MCP-1 secretion” value worked out at 1.4 fold. In addition, the “increase in IL-8 secretion” value in assay [2] was 8 fold. The “phosphorylation of p38 protein induced” value in assay [3] is reported as 1.6 fold.
